Measured values reported in patent US10030020B2, “Spirocycle compounds and methods of making and using same” (Abide Therapeutics, Inc., priority 2016, dated 2018).
Like-named read-outs stand apart in the source and are kept apart here.

How the values were obtained:
[1] = biological target: T1, ABHD6 (Mus musculus (Mouse), UniProt Q8R2Y0); test: Mouse brain proteomes from inhibitor treated mice (oral gavage, sacrificed 4 h after administration, ABPP analysis), ABHD6; type: in vivo, mouse (C57Bl/6J); details: 5 mg/kg oral gavage
T1 sequence (Q8R2Y0 whole entry): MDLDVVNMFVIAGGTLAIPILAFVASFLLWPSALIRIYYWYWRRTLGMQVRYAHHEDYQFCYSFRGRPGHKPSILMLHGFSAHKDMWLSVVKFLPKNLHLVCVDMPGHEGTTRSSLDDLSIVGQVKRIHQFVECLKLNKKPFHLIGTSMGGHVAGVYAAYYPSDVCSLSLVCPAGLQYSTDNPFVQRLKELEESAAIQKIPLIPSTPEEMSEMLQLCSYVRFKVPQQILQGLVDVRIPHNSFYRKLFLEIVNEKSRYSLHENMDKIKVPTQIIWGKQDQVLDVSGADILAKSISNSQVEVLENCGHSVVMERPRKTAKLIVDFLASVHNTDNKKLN
Procedure: (§1) Preparation of Mouse Brain Proteomes from Inhibitor Treated Mice.
(§2) Inhibitors were administered to wild-type C57Bl/6J by oral gavage in a vehicle, e.g. PEG400/Ethanol/PBS (7/2/1). Each animal was sacrificed 4 h following administration and brain proteomes were prepared and analyzed according to previously established methods (See Niphakis, M. J., et al. (2011) ACS Chem. Neurosci. and Long, J. Z., et al. Nat. Chem. Biol. 5:37-44). Data from this assay is shown in Table 2 (% inhibition at 5 mg/kg).

[2] = biological target: T2, MAGL (Mus musculus (Mouse), UniProt O35678); test: Mouse brain proteomes from inhibitor treated mice (oral gavage, sacrificed 4 h after administration, ABPP analysis); type: in vivo, mouse (C57Bl/6J); details: 5 mg/kg oral gavage
T2 sequence (O35678 whole entry): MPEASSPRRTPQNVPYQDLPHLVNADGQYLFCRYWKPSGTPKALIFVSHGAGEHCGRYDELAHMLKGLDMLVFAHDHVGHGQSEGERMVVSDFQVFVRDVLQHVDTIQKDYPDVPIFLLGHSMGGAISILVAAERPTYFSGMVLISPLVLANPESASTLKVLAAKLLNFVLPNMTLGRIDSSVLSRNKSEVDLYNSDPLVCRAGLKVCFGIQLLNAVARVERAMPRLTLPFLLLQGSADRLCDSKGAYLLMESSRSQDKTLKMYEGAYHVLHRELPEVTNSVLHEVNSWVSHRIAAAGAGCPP
Procedure: as §1, §2

[3] = biological target: T3, FAAH (Mus musculus (Mouse), UniProt O08914); test: In vitro competitive activity-based protein profiling (mouse brain membrane fraction or cell lysates), FAAH band; type: biochemical; details: for inhibition at 1 µM: read-out: FAAH % Inh 1 μM (mouse); for IC50: competitive ABPP
T3 sequence (O08914 whole entry): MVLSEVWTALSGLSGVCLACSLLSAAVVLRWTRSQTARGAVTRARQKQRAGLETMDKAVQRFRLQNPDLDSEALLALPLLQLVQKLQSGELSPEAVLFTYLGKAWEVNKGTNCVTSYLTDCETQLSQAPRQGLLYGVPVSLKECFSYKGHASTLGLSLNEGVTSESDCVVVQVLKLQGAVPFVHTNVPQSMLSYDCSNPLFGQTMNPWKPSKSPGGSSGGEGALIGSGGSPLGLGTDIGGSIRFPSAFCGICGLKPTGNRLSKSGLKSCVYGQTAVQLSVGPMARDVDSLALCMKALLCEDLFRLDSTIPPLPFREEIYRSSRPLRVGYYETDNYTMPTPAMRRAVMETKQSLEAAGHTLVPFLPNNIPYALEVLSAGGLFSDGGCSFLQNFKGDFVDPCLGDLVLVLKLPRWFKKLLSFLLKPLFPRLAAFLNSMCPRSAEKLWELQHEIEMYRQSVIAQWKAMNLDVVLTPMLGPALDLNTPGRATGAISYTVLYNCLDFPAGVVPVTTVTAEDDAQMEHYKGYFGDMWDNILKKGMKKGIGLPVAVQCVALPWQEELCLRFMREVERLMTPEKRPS
Outline: (§3)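 Residual hydrolase activity was measured as gel band fluorescence after FP-Rh labelling (30 min, 37° C) of proteomes pretreated 30 min at 37° C with inhibitor.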

[4] = biological target: T1, ABHD6; test: In vitro competitive activity-based protein profiling (mouse brain membrane fraction or cell lysates), ABHD6 band; type: biochemical; details: for inhibition at 1 µM: read-out: ABHD6 % Inh 1 μM (mouse); for IC50: competitive ABPP
Outline: as §3

[5] = biological target: T2, MAGL; test: In vitro competitive activity-based protein profiling (mouse brain membrane fraction or cell lysates), MAGL band; type: biochemical; details: for inhibition at 1 µM: read-out: MAGL % Inh 1 μM (mouse); for IC50: competitive ABPP
Procedure: In Vitro Competitive Activity-Based Protein Profiling.
Proteomes (mouse brain membrane fraction or cell lysates) (50 μL, 1.0 mg/mL total protein concentration) were preincubated with varying concentrations of inhibitors at 37° C. After 30 min, FP—Rh (1.0 μL, 50 μM in DMSO) was added and the mixture was incubated for another 30 min at 37° C. Reactions were quenched with SDS loading buffer (50 μL-4×) and run on SDS-PAGE.

[6] = biological target: T3, FAAH; test: Mouse brain proteomes from inhibitor treated mice (oral gavage, sacrificed 4 h after administration, ABPP analysis), FAAH; type: in vivo, mouse (C57Bl/6J); details: 5 mg/kg oral gavage
Procedure: as §1, §2

ABHD6 % Inh 5 mg/kg (mouse) [1]	MAGL % Inh 5 mg/kg (mouse) [2]	inhibition at 1 µM ([3]; mouse proteome) [%]	IC50 ([3]; mouse proteome) [nM]	inhibition at 1 µM ([4]; mouse proteome) [%]	IC50 ([4]; mouse proteome) [nM]	inhibition at 1 µM ([5]; mouse proteome) [%]	IC50 ([5]; mouse proteome) [nM]	FAAH % Inh 5 mg/kg (mouse) [6]	inhibition at 1 µM ([3]; mouse) [%]	inhibition at 1 µM ([4]; mouse) [%]	inhibition at 1 µM ([5]; mouse) [%]	SMILES
# (# is <25%)	### (### is ≥75%)	< 25	> 1000	< 25	> 1000	> 75	100 to 1000	# (# is <25%)				CCOc1ccc(CN2CCCC23CCN(C(=O)OC(C(F)(F)F)C(F)(F)F)CC3)cc1 [Example 4, 1,1,1,3,3,3-Hexafluoropropan-2-yl 1-(4-ethoxybenzyl)-1,8-diazaspiro[4.5]decane-8-carboxylate]
# (# is <25%)	### (### is ≥75%)		> 1000		> 1000		< 100	### (### is ≥75%)				COc1cccc(CN2CCCC23CCN(C(=O)OC(C(F)(F)F)C(F)(F)F)CC3)c1Cl [Example 7, 1,1,1,3,3,3-Hexafluoropropan-2-yl 1-(2-chloro-3-methoxybenzyl)-1,8-diazaspiro[4.5]decane-8-carboxylate]
# (# is <25%)	### (### is ≥75%)		> 1000		> 1000		< 100	# (# is <25%)				COc1cc(Cl)ccc1CN1CCCC12CCN(C(=O)OC(C(F)(F)F)C(F)(F)F)CC2 [Example 9, 1,1,1,3,3,3-Hexafluoropropan-2-yl 1-(4-chloro-2-methoxybenzyl)-1,8-diazaspiro[4.5]decane-8-carboxylate]
		< 25		< 25		> 75						O=C(O)[C@H]1CCCN(c2cc(CN3CCCC34CCN(C(=O)OC(C(F)(F)F)C(F)(F)F)CC4)cc(C(F)(F)F)c2)C1 [Example 213]
									< 25	25 to 75	25 to 75	O=C(O)c1cccc(CN2CCCC23CCN(C(=O)OC(C(F)(F)F)C(F)(F)F)CC3)c1 [Example 242]
									< 25	< 25	> 75	O=C(O)c1ccc(CN2CCCC23CCN(C(=O)OC(C(F)(F)F)C(F)(F)F)CC3)cc1 [Example 250]
									< 25	< 25	25 to 75	O=C(O)c1ccccc1CN1CCCC12CCN(C(=O)OC(C(F)(F)F)C(F)(F)F)CC2 [Example 251]
									< 25	< 25	25 to 75	COc1ccc(CN2CCCC23CCN(C(=O)OC(C(F)(F)F)C(F)(F)F)CC3)cc1C(=O)O [Example 254]
									< 25	< 25	< 25	Cc1ccc(CN2CCCC23CCN(C(=O)OC(C(F)(F)F)C(F)(F)F)CC3)cc1C(=O)O [Example 257]
									< 25	< 25	< 25	O=C(O)C1CCCCN1c1cc(C(F)(F)F)ccc1CN1CCCC12CCN(C(=O)OC(C(F)(F)F)C(F)(F)F)CC2 (stereo not drawn) [Example 259]

The next lines start with the molecule.

SMILES	ABHD6 % Inh 5 mg/kg (mouse) [1]	MAGL % Inh 5 mg/kg (mouse) [2]	inhibition at 1 µM ([3]; mouse proteome) [%]	IC50 ([3]; mouse proteome) [nM]	inhibition at 1 µM ([4]; mouse proteome) [%]	IC50 ([4]; mouse proteome) [nM]	inhibition at 1 µM ([5]; mouse proteome) [%]	IC50 ([5]; mouse proteome) [nM]	FAAH % Inh 5 mg/kg (mouse) [6]	inhibition at 1 µM ([3]; mouse) [%]	inhibition at 1 µM ([4]; mouse) [%]	inhibition at 1 µM ([5]; mouse) [%]
CCOc1cccc(CN2CCCC23CCN(C(=O)OC(C(F)(F)F)C(F)(F)F)CC3)c1 [Example 5, 1,1,1,3,3,3-Hexafluoropropan-2-yl 1-(3-ethoxybenzyl)-1,8-diazaspiro[4.5]decane-8-carboxylate]	## (## is equal to or greater than 25% but less than 75%)	### (### is ≥75%)	< 25	> 1000	< 25	> 1000	> 75	< 100	# (# is <25%)			
COc1ccc(F)cc1CN1CCCC12CCN(C(=O)OC(C(F)(F)F)C(F)(F)F)CC2 [Example 8, 1,1,1,3,3,3-Hexafluoropropan-2-yl 1-(5-fluoro-2-methoxybenzyl)-1,8-diazaspiro[4.5]decane-8-carboxylate]	## (## is equal to or greater than 25% but less than 75%)	### (### is ≥75%)		> 1000		> 1000		< 100	## (## is equal to or greater than 25% but less than 75%)			
COc1c(Cl)cccc1CN1CCCC12CCN(C(=O)OC(C(F)(F)F)C(F)(F)F)CC2 [Example 10, 1,1,1,3,3,3-Hexafluoropropan-2-yl 1-(3-chloro-2-methoxybenzyl)-1,8-diazaspiro[4.5]decane-8-carboxylate]	# (# is <25%)	### (### is ≥75%)		> 1000		> 1000		< 100	## (## is equal to or greater than 25% but less than 75%)			
O=C(OC(C(F)(F)F)C(F)(F)F)N1CCC2(CCN(Cc3ccc(Cl)cc3N3CCCC3)C2)CC1 [Example 17, 1,1,1,3,3,3-Hexafluoropropan-2-yl 2-(4-chloro-2-(pyrrolidin-1-yl)benzyl)-2,8-diazaspiro[4.5]decane-8-carboxylate]	# (# is <25%)	## (## is equal to or greater than 25% but less than 75%)	< 25	> 1000	≥ 75	> 1000	> 75	< 100	# (# is <25%)			
O=C(OC(C(F)(F)F)C(F)(F)F)N1CCC2(CCN(Cc3c(N4CC5COCC5C4)cccc3C(F)(F)F)C2)CC1 (stereo not drawn) [Example 18, 1,1,1,3,3,3-Hexafluoropropan-2-yl 2-(2-(tetrahydro-1H-furo[3,4-c]pyrrol-5(3H)-yl)-6-(trifluoromethyl)benzyl)-2,8-diazaspiro[4.5]decane-8-carboxylate]	# (# is <25%)	## (## is equal to or greater than 25% but less than 75%)	< 25	> 1000	25 to 75	> 1000	> 75	< 100	# (# is <25%)			
O=C(OC(C(F)(F)F)C(F)(F)F)N1CCC2(CCCN2Cc2ccc(Cl)cc2N2CCN(CCF)CC2)CC1 [Example 19, 1,1,1,3,3,3-Hexafluoropropan-2-yl 1-(4-chloro-2-(4-(2-fluoroethyl)piperazin-1-yl)benzyl)-1,8-diazaspiro[4.5]decane-8-carboxylate]	# (# is <25%)	## (## is equal to or greater than 25% but less than 75%)		> 1000		> 1000		< 100	# (# is <25%)			
O=C(OC(C(F)(F)F)C(F)(F)F)N1CCC2(CCN(Cc3ccc(Cl)cc3N3CCOCC3)C2)CC1 [Example 21, 1,1,1,3,3,3-Hexafluoropropan-2-yl 2-(4-chloro-2-morpholinobenzyl)-2,8-diazaspiro[4.5]decane-8-carboxylate]	## (## is equal to or greater than 25% but less than 75%)	### (### is ≥75%)	< 25	> 1000	≥ 75	100 to 1000	> 75	< 100	# (# is <25%)			
O=C(O)[C@@H]1CCCN(c2cc(CN3CCC4(CCN(C(=O)OC(C(F)(F)F)C(F)(F)F)CC4)C3)cc(C(F)(F)F)c2)C1 [Example 208]			< 25		≥ 75		> 75					
O=C(O)[C@@H]1CCCN(c2cc(CN3CCCC34CCN(C(=O)OC(C(F)(F)F)C(F)(F)F)CC4)cc(C(F)(F)F)c2)C1 [Example 212]			< 25		< 25		> 75					
O=C(O)C1COCCN1c1cc(C(F)(F)F)ccc1CN1CCC2(CCN(C(=O)OC(C(F)(F)F)C(F)(F)F)CC2)C1 (stereo not drawn) [Example 220]			< 25		< 25		25 to 75					
O=C(O)C1CCCCN1c1cc(C(F)(F)F)ccc1CN1CCC2(CCN(C(=O)OC(C(F)(F)F)C(F)(F)F)CC2)C1 (stereo not drawn) [Example 224]										< 25	< 25	25 to 75
NC(=O)C1CCN(c2cc(C(F)(F)F)ccc2CN2CCCC23CCN(C(=O)OC(C(F)(F)F)C(F)(F)F)CC3)CC1 [Example 273]										< 25	25 to 75	> 75
